A short description of the data set: gradient 5% acetonitrile 3 min, to 50% in 2 min, to 85% in 15 min, held 3 min, 100 µL/min. To be noted: column: Zorbax Extend-C18 2.1 x 50 mm; eluents: water / acetonitrile, 0.1% formic acid. The essentials: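 Pure standards were analyzed in mixtures of ~100 molecules using HPLC coupled to a quadrupole time-of-flight mass spectrometer, in both positive and negative ionization mode. Separation used a Zorbax Extend-C18 column (2.1 × 50 mm, 1.8 μm) at 100 μL/min, with water and acetonitrile each containing 0.1% formic acid. Dead and dwell volumes were 40 μL and 900 μL, and data were collected over 3 months. Retention time was read from computationally picked adduct peaks, each inspected manually.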
`O=C(O)c1cccnc1N1CCCCC1`: the RP-LC retention time came to 575 s.

Molecule `O=C(c1noc2c1CCCC2)N1CCN(c2ccccn2)CC1` displayed an RP-LC retention time of 613 s.

With `Cc1sc2ccn(CC(C)C)c(=O)c2c1C(=O)NCCN1CCCCCC1`, the RP-LC retention time was found to be 684 s.

For `CS(=O)(=O)N1CCCC(C(=O)Nc2ccc(Cl)cc2C(=O)c2ccccc2)C1` (stereo not given), the RP-LC retention time is 869 s.

For `CCCNC(=O)c1cc(C)nc2ccc(Br)cc12`, the RP-LC retention time came to 718 s.

`CC(C)N1CCN(C(=O)c2n[nH]c3c2CCCC3)CC1` returned an RP-LC retention time of 558 s.

`COc1ccc(-c2cc(N3CCN(C(=O)c4ccc5[nH]ccc5c4)CC3)n[nH]2)cc1` had an RP-LC retention time of 703 s.

In turn, `CCc1ccc(S(=O)(=O)N2c3ccccc3CC2c2nnc(C3CCOCC3)o2)cc1` (stereo not given) displayed an RP-LC retention time of 948 s.

The molecule `COc1ccc(OC)c(NC(=O)Cn2c(N3CCOCC3)nc(C)cc2=O)c1` returned an RP-LC retention time of 695 s.

Regarding `COc1ccc(OC)c(NC(=O)CSc2cc(N3CCN(c4ccccc4OC)CC3)ncn2)c1`, the RP-LC retention time was 791 s.

`CCN(C(=O)C1CCCN(c2ncnc3c2nc2n3CCCCC2)C1)c1cccc(C)c1` (stereo not given) gave an RP-LC retention time of 903 s.

Turning to `COCCN(Cc1ccc(C)cc1)Cc1cc(=O)n2ccc(C)cc2n1`, the RP-LC retention time was 656 s.

In the case of `CCC1(O)CCC12CCN(C(=O)C1CCCC1)CC2` (stereo not given), the RP-LC retention time was found to be 773 s.

For the molecule `COc1ccc(-c2nc(Nc3cnc(SC)nc3)sc2C)cc1`, the RP-LC retention time stood at 1050 s.

`O=C(Nc1ccnn1Cc1ccco1)c1cc(=O)c2cc(Cl)ccc2o1` came in with an RP-LC retention time of 830 s.

With `C=CCNC(=O)N1CCCN(C2=NS(=O)(=O)C(c3ccc(C)c(C)c3)=C2C)CC1`, the RP-LC retention time was 770 s.

Molecule `O=C(Cc1cccs1)NCCOc1ccc(F)cc1` yielded an RP-LC retention time of 766 s.

The molecule `Cc1ccccc1Cn1cc(-c2ccncc2)cc1C(=O)N1CCN(C2CCCCC2)CC1` yielded an RP-LC retention time of 586 s.

For `Cc1ccc(C)c(NC(=O)N2CCC(N3CCN(Cc4ccc(F)cc4)C(=O)C3=O)CC2)c1`, the RP-LC retention time came to 754 s.

In the case of `COc1cc(NC(=O)CN2CCSc3ccccc32)cc(OC)c1OC`, the RP-LC retention time came out at 890 s.

In turn, `O=C(NCc1cnccn1)c1ccnc(N2CCNC(c3ccccc3)C2)c1` (stereo not given) came in with an RP-LC retention time of 581 s.

In turn, `Cn1cc(CC(=O)NCc2ccccc2Cl)c2cccnc21` yielded an RP-LC retention time of 706 s.

`CC(C)(C)C(=O)N1CCC(C(=O)Nc2cccc(Br)c2)CC1` came in with an RP-LC retention time of 855 s.

With `CCOc1ccc2nc(NC3=NCN(CCCOC)CN3)nc(C)c2c1`, the RP-LC retention time worked out at 668 s.

Molecule `CC(C)(C)C(=O)Nc1ccc2nc(N3CCN(c4ccccc4)CC3)cc(C(=O)O)c2c1` showed an RP-LC retention time of 683 s.

The molecule `Cc1ccc(C)c(-n2ccn(Cc3nc(-c4ccccc4C)no3)c(=O)c2=O)c1` gave an RP-LC retention time of 953 s.

`Cc1ccc(CNC(=O)c2c(C)sc3ccn(CC(C)C)c(=O)c23)cc1` gave an RP-LC retention time of 999 s.

For `CCCn1cc(C(=O)NCCN(C)C)c(S(=O)(=O)N2CCN(c3cccc(Cl)c3)CC2)n1`, the RP-LC retention time amounted to 745 s.

On to `CCC(C)NC(=O)N1CCN(Cc2nc3cc(C(C)(C)C)ccc3o2)CC1` (stereo not given), for which the RP-LC retention time was determined as 758 s.

The molecule `CC(C)c1ccc(-c2c(N3CCN(c4ccccn4)CC3)c(=O)c2=O)cc1` displayed an RP-LC retention time of 756 s.

Molecule `COc1ccc(N2CCN(c3cc(SCC(=O)Nc4ccc(F)c(Cl)c4)ncn3)CC2)cc1` showed an RP-LC retention time of 1060 s.

`O=C(Cn1ccc2ccc(N3CCOCC3)nc21)NCc1ccccc1Br` yielded an RP-LC retention time of 886 s.

As for `c1ccc(-c2nnc(-c3nc(NCCCN4CCC(N5CCCCC5)CC4)c4ccccc4n3)o2)cc1`, the RP-LC retention time was 550 s.

As for `O=C1CC(NC(=O)c2cnn(-c3ccccc3)n2)CN1` (stereo not given), the RP-LC retention time amounted to 603 s.

`O=C(Nc1ccc2c(c1)OCCO2)c1cc2nc(N3CCCCC3)sc2s1` gave an RP-LC retention time of 1010 s.

In turn, `CCc1nc2cc(-c3noc(-c4ccc(CS(=O)(=O)c5ccccc5)cc4)n3)ccc2o1` showed an RP-LC retention time of 1140 s.

Molecule `CCS(=O)(=O)N1CCC[C@@H]2CN3CCc4cc(OC)ccc4[C@@H]3C[C@@H]21` yielded an RP-LC retention time of 670 s.

With `COCCNC(=O)C1CCN(c2nc3ccc(-c4cccnc4)nc3s2)CC1`, the RP-LC retention time came out at 578 s.

In turn, `CCOC(=O)c1c(S(=O)(=O)N2CCC(C(=O)NCc3cccc(C)c3)CC2)c(C)n(CC)c1C` registered an RP-LC retention time of 975 s.

In turn, `CCN1c2cc(F)ccc2C(=O)NC12CCN(C(=O)c1cccc(OC)c1)CC2` yielded an RP-LC retention time of 756 s.

The molecule `Cc1ccc(-c2noc(Cn3ncn4nc(-c5ccc(F)cc5)cc4c3=O)n2)cc1` gave an RP-LC retention time of 817 s.

`Cn1cc2nc(SCC(=O)Nc3ccc(Br)cc3)n(CC3CC3)c(=O)c2n1` had an RP-LC retention time of 905 s.

For the molecule `O=C(Cc1cn2cc(F)ccc2n1)Nc1ccc(Cl)cc1Cl`, the RP-LC retention time amounted to 666 s.

`CCCN1C(=O)COc2ccc(-c3noc(Cc4ccc(OC)c(OC)c4)n3)cc21` displayed an RP-LC retention time of 993 s.

In turn, `CCCNC(=O)NCCC1CCN(S(=O)(=O)c2ccccc2)CC1` registered an RP-LC retention time of 753 s.

For the molecule `O=C(Nc1ccc(C2=NCCN2)cc1)c1ccc(Cl)c(C(=O)Nc2ccc(C3=NCCN3)cc2)c1`, the RP-LC retention time was 618 s.

As for `O=C(NCCn1ncccc1=O)c1c(F)cccc1F`, the RP-LC retention time came out at 584 s.

Molecule `COc1ccc(-c2nc(C3CC(=O)N(c4ccc(OC)c(OC)c4)C3)no2)c(OC)c1` (stereo not given) yielded an RP-LC retention time of 797 s.

In the case of `CC(CNC(=O)C1CCN(S(=O)(=O)c2cn(C(C)C)cn2)CC1)c1ccccc1` (stereo not given), the RP-LC retention time amounted to 764 s.

As for `Cc1[nH]c(C(=O)N2CCCC(C(=O)N3CCN(C4CCCCC4)CC3)C2)c(C)c1C(=O)OC(C)C` (stereo not given), the RP-LC retention time turned out to be 645 s.

Molecule `O=C(c1cc(-c2ccncc2)n[nH]1)N1CCC(C(=O)N2CCN(c3ccc(Cl)cc3)CC2)CC1` showed an RP-LC retention time of 672 s.

As to `Cc1cc(=O)n(CC(=O)NC(C)CCc2ccccc2)c(N2CCOCC2)n1` (stereo not given), the RP-LC retention time was determined as 713 s.

As for `CC(C)CCNC(=O)C1CCN(S(=O)(=O)c2ccc3c(c2)NC(=O)CO3)CC1`, the RP-LC retention time turned out to be 744 s.

`Cc1cc(NC(=O)CCCSc2ccc(F)cc2)no1` yielded an RP-LC retention time of 838 s.

As to `Cc1ccc(C)c(-c2csc(NC(=O)COc3ccccc3)n2)c1`, the RP-LC retention time was 1150 s.

With `Nc1cc(C2CCN(C(=O)c3cccc(F)c3)CC2)no1`, the RP-LC retention time was 658 s.

On to `COCCNC(=O)CSc1cc(N2CCN(c3ccccc3OC)CC2)ncn1`, for which the RP-LC retention time amounted to 698 s.

Regarding `COc1ccc(Cl)cc1NC(=O)COc1cc(C)nc(N2CCCC2)n1`, the RP-LC retention time was 613 s.

Take `COc1ccc(-n2ccc(=O)c(-c3nc(-c4ccc(Br)cc4)no3)n2)cc1`: the RP-LC retention time is 984 s.

As to `CC(C)n1c(N2CCN(C(=O)c3[nH]nc4c3CCc3ccccc3-4)CC2)cc(=O)n(C(C)C)c1=O`, the RP-LC retention time worked out at 872 s.

Take `CCCC(=O)N1CCc2c([nH]c3ccccc23)C1c1ccc(Cl)cc1` (stereo not given): the RP-LC retention time is 578 s.

`COc1cc(CCNCc2c(C(=O)O)n(C)c3ccccc23)cc(OC)c1OC`: the RP-LC retention time came out at 656 s.

For the molecule `CCc1nc2c(NC(=O)c3ccc(C(F)(F)F)cc3)cccn2n1`, the RP-LC retention time is 957 s.

Molecule `COc1cc(-c2nnc(-c3cccc(S(=O)(=O)N4CCCC4)c3)o2)cc(OC)c1OC` came in with an RP-LC retention time of 916 s.

As for `CCCNc1cc(N2CCC(CCC(=O)N3CCN(c4ncccn4)CC3)CC2)ncn1`, the RP-LC retention time was determined as 632 s.

Molecule `COc1ccc(C2CCCN2C(=O)c2cc(C)on2)cc1` (stereo not given) had an RP-LC retention time of 786 s.

In turn, `COc1ccc2c(c1)-c1nc(NC(=O)c3ccc(F)cc3)sc1CC2` displayed an RP-LC retention time of 1140 s.

Regarding `Cc1noc2ncnc(N3CCCC(C(=O)N4CCC(Cc5ccccc5)CC4)C3)c12` (stereo not given), the RP-LC retention time stood at 986 s.

For `Cc1ccccc1NC(=O)C1CC(=O)N(c2ccc3c(c2)CCN3C(=O)C2CCC2)C1` (stereo not given), the RP-LC retention time stood at 803 s.

On to `O=C(Nc1ccccc1F)N1CCN(CCn2c(C(F)(F)F)nc3cccnc32)CC1`, for which the RP-LC retention time amounted to 624 s.

Consider `CN1C(=O)c2cccnc2Sc2cc(NC(=O)c3ccc(C(F)(F)F)cc3)ccc21`, for which the RP-LC retention time worked out at 910 s.

In turn, `CCn1nc(CNC(=O)c2ccc(F)c(F)c2)c2ccccc21` came in with an RP-LC retention time of 896 s.

`CCc1ccc(NC(=O)Cn2ncc3c(c2=O)N(C2CC2)C(=O)CS3)cc1`: the RP-LC retention time came out at 797 s.

For `CCn1cc(S(=O)(=O)NCCc2noc(-c3ccncc3)n2)cn1`, the RP-LC retention time turned out to be 645 s.

`COCc1nc(CCNS(=O)(=O)c2ccc(F)cc2)no1` yielded an RP-LC retention time of 731 s.

On to `CN(C)c1ccc(/C=C/c2ccc3ccccc3n2)cc1`, for which the RP-LC retention time came out at 785 s.

Consider `COc1ccc2[nH]cc(CCN3CC(C(=O)N4CCc5ccccc54)CC3=O)c2c1` (stereo not given), for which the RP-LC retention time is 802 s.

In turn, `COc1ccc(CNC(=O)Cc2nnc(-c3ccsc3)o2)c(OC)c1` displayed an RP-LC retention time of 692 s.

In the case of `Cc1ccc(C(=O)NCCCN2CCCC2)cc1NC(=O)C1=CSCCO1`, the RP-LC retention time stood at 596 s.

Molecule `CCOC(=O)N1CCC(NC(=O)Cn2ccc3ccccc32)CC1` came in with an RP-LC retention time of 731 s.

Values taken from the METLIN SMRT retention time set (Domingo-Almenara et al. 2019).
